One test has as its system HCV 1a replicon. In words: HCV GT1a replicon assay in Huh-7 cells. The format is cell-based, Hepatitis C virus. The note with it: Huh-7 cells transfected with HCV replicon, 72 hours incubation, read-out: EC50 against HCV 1a genotype. The procedure: (§1) HCV Replicon System was utilized as an evaluation model in the present disclosure for verifying the effects of the compounds disclosed herein on HCV. An HCV Replicon assay was first described in Science, 1999, 285 (5424), 110-3. […] To determine the potential anti-HCV effects of the test compounds, luciferase assay and antibiotic Neomycin resistance gene were tested according to the method described in Science. 1999 Jul. 2; 285 (5424), 110-3 and J. Virol. 2003 March; 77 (5), 3007-19.
(§2) In a word, the compounds disclosed herein were tested by using human hepatic carcinoma cell line which is transfected stably HCV GT1a, GT1b or GT2a replicon respectively, and resistant cells Y93H, L31F, P32L or I302V and wild-type cells HCV 1b. HCV Replicon System disclosed herein containing Neomycin resistance gene and Luciferase Reporter Gene, the level of HCV replication in host cells is characterized by the expression level of the NEO gene expression level or Luciferase Reporter Gene, and the effects of the compounds herein inhibit HCV replication can be evaluated. In this article, a real-time quantitative polymerase chain reaction (qPCR) method was used to detect NEO gene expression level, and chemiluminescence method was used to test Luciferase Reporter Gene expression level.
(§3) 1. Test Method for Measuring EC50 of the Compounds Base on Luciferase Assay.
(§4) The Huh-7 cells transfected with HCV replicons system were seeded into 96-well plates (8,000 cells in 125 μL/well) respectively; each test compound was diluted to desired concentration using 5-fold serial dilutions protocol, 10 doses in duplicate, and added to wells with POD™ 810 Plate Assembler. […] In this paper, experiments were repeated twice and set the holes without compounds as negative control.
(§5) 2. Test Method for Measuring EC50 of the Compounds by Detecting Antibiotic G418 Resistance Gene NEO Gene.
(§6) In this paper, experiments were repeated twice and set the holes without compounds as negative control.

For the next test, the system named is HCV 1b replicon. In words: HCV GT1b replicon assay in Huh-7 cells. In kind it is cell-based, Hepatitis C virus. The settings on record: Huh-7 cells transfected with HCV replicon, 72 hours incubation, read-out: EC50 against HCV 1b genotype. How it is done: as §1, §2, §3, §4, §5, §6
On the technique in general: A replicon is a self-replicating genome or part of one, used to study replication in cells.

Where two headings read alike, the source gives them in different places.

One may read the EC50 as the concentration at which the effect is half-maximal. Take `COC(=O)N[C@H](C(=O)N1CCC[C@H]1c1ncc(-c2ccc(-c3sc(-c4ccc5nc([C@@H]6CCCN6C(=O)[C@@H](NC(=O)OC)C(C)C)[nH]c5c4)c4c3CC3(CCCC3)C4)c3cnoc23)[nH]1)C(C)C` [Example 32]: the figures for the EC50 in the test on HCV 1a replicon (Hepatitis C virus) and with HCV 1b replicon (Hepatitis C virus) were 10.3 nM and 0.446 nM, respectively.
In the case of `COC(=O)N[C@H](C(=O)N1CCC[C@H]1C1=Nc2cc(-c3cnc(-c4ccc(-c5cnc([C@@H]6CCCN6C(=O)[C@@H](NC(=O)OC)C(C)C)[nH]5)cc4)c4c3CC3(CCCC3)C4)ccc2S(=O)(=O)N1)C(C)C` [Example 29], the EC50 in the test on HCV 1a replicon (Hepatitis C virus) came out at 0.061 nM; with HCV 1b replicon (Hepatitis C virus), 0.009 nM.
Turning to `COC(=O)N[C@H](C(=O)N1CCC[C@H]1c1ncc(-c2ccc(-c3ccc(-c4ccc5nc([C@@H]6CC7CC7N6C(=O)[C@@H](NC(=O)OC)C(C)C)[nH]c(=O)c5c4)c4c3OC3(CCCC3)O4)cc2)[nH]1)C(C)C` (stereo partly drawn) [Example 11], the values for the EC50 in the test on HCV 1a replicon (Hepatitis C virus) and in the test with HCV 1b replicon (Hepatitis C virus) were 0.068 nM and 0.032 nM, respectively.
`COC(=O)N[C@H](C(=O)N1CCC[C@H]1C1=Nc2cc(-c3ccc(-c4ccc(-c5cnc([C@@H]6CCCN6C(=O)[C@@H](NC(=O)OC)C(C)C)[nH]5)cc4)c4c3CC3(CCCC3)C4)ccc2C2(COC2)N1)C(C)C` [Example 4]: the 50% effective concentration (EC50) in the test on HCV 1a replicon (Hepatitis C virus) is 0.089 nM; in the test with HCV 1b replicon (Hepatitis C virus) it was 0.016 nM.
As to `COC(=O)NC(C(=O)N1CCC[C@@H]1c1ncc(-c2ccc(-c3ccc(-c4ccc5nc([C@@H]6CCCN6C(=O)[C@@H](NC(=O)OC)C(C)C)[nH]c(=O)c5c4)c4c3CC3(CCCC3)C4)cc2)[nH]1)C(C)C` (stereo partly drawn) [Example 34], the values for the EC50 in the test on HCV 1a replicon (Hepatitis C virus) and in the test with HCV 1b replicon (Hepatitis C virus) were 0.641 nM and 0.055 nM, respectively.
As for `COC(=O)N[C@H](C(=O)N1C[C@@H](C)C[C@H]1n1cnc(-c2ccc(-c3ccc(-c4ccc5nc([C@@H]6C[C@H](C)CN6C(=O)[C@@H](NC(=O)OC)C(C)C)[nH]c(=O)c5c4)c4c3CC3(CCCC3)C4)cc2)c1)C(C)C` [Example 17], the results for the EC50 with HCV 1a replicon and in the test with HCV 1b replicon were 0.023 nM and 0.006 nM, respectively.
For `COC(=O)N[C@H](C(=O)N1CCC[C@H]1c1ncc(C#Cc2ccc(-c3ccc4nc([C@@H]5CCCN5C(=O)[C@@H](NC(=O)OC)C(C)C)[nH]c(=O)c4c3)c3c2CC2(CCCC2)C3)[nH]1)C(C)C` [Example 7], the half-maximal effective concentration (EC50) is 0.21 nM with HCV 1a replicon (Hepatitis C virus) and 0.103 nM in the test with HCV 1b replicon (Hepatitis C virus).
For the compound `COC(=O)N[C@H](C(=O)N1CCC[C@H]1c1ncc(-c2ccc(-c3ccc(-c4ccc5nc([C@@H]6CC7CC7N6C(=O)[C@@H](NC(=O)OC)C(C)C)[nH]c(=O)c5c4)c4c3CC3(CCN(C)CC3)C4)cc2)[nH]1)C(C)C` (stereo partly drawn) [Example 10], the EC50 in the test on HCV 1a replicon (Hepatitis C virus) amounted to 1.27 nM; with HCV 1b replicon (Hepatitis C virus), 0.438 nM.
In the case of `COC(=O)N[C@H](C(=O)N1CCC[C@H]1c1ncc(-c2ccc(-c3ccc(-c4ccc5nc([C@@H]6CC7CC7N6C(=O)[C@@H](NC(=O)OC)C(C)C)[nH]c(=O)c5c4)c4c3CC3(CCCC3)C4)c3ccccc23)[nH]1)C(C)C` (stereo partly drawn) [Example 26], the values for the concentration giving a half-maximal response (EC50) in the test with HCV 1a replicon (Hepatitis C virus) and in the test on HCV 1b replicon (Hepatitis C virus) were 0.727 nM and 0.216 nM, respectively.

For the origin of these results see patent US9416139B2, “Spiro ring compound as hepatitis C virus (HCV) inhibitor and uses thereof” (SUNSHINE LAKE PHARMA CO., LTD., priority 2012, dated 2016).
